How the values were obtained:
C. albicans = experiment: Viability of C. albicans; format: cell-based; settings: Candida albicans
Experimental: (§1) Oxatetradecanoic acids were added (final concentraton=25-500 μM) as a single dose to log phase cultures of C. alibcans grown in SAB at 30° C. (Panels A and B) and to log phase cultures of S. cerevisiae grown in YPD at 30° C. (Panels C and D). The results were compared to the number of viable organisms present in cultures treated with 0.1% EtOH alone. […] A single does of alphotericin B (final concentration=55 μM) was added to parallel cultures which served as positive controls. Assays were done in duplicate. Representative tests are shown.
(§2) Saccharomyces cerevisiae strain YM2061 (MATa ura3-52 his3Δ200 ade2-101 lys2-801 met LEU2::pRY181 can1; Flick and Johnston, Mol. Cell. Biol. 10, 4757-4769 (1990), Candida albicans strain B311 (obtained from the American Type Tissue Culture, Rockville, Md.), or Cryptococcus neoformans strain L210425 (a clinical isolate that is part of the permanent culture collection of the Mycology Laboratory, Barnes Hospital, St. Louis, Mo.) were grown overnight at 30 C. The S. cerevisiae strain was incubated in YPD medium (1% bacto-yeast extract, Gibco, Long Island, N.Y.), 2% bacto-peptone (Gibco), 2% dextrose). The C. albicans and C. neoformans strains were grown in Sabouraud's media (SAB; 2% (w/v) dextrose, 1% bacto-peptone). The following morning the cultures were diluted into fresh medium to the desired density at 600 nm (early log phase), and subsequently incubated in a rotary shaker at 30° C. until an A600 =0.5 (mid log phase) was achieved. The culture was then divided into 10 ml aliquots. A single 10 μl aliquot of a stock solution of fatty acid analog (prepared in various concentrations using absolute ethanol) was added to the culture so that the final concentration of the compound was 100-500 μM (T=0). Ten microliters of ethanol alone was added to one 10 ml culture which served as the negative control. Amphotericin B (AmB; in the form of Fungizone, Squibb) was added (final concentration=55 μM) to another culture which served as the positive control. At T=0 and 0.5-24 h after addition of fatty acid analog to the subcultures, an aliquot was removed for determining the density of the subculture at 600 nm. Cell viability was determined at each of these time points by (i) serially diluting the aliquot in 0.15M NaCl and counting cell number in a hemocytometer and (ii) plating 2-3 of the dilutions in triplicate onto plates of SAB/agar (C. albicans and C. neoformans) or YPD/agar (S. cerevisiae). These plates were subsequently incubated at 30° C. for 24-48 hr to allow for the growth of colonies. The data were expressed as the ratio of viable cells/ml in the fatty acid analog treated subculture to the number of viable cells/ml in the negative (ethanol) control culture.

S. cerevisiae = experiment: Viability of S. cerevisiae; format: cell-based; settings: Saccharomyces cerevisiae
Experimental: as §1, §2

C. neoformans = experiment: Growth of C. neoformans cultures (absorbance at 600 nm); format: cell-based, Cryptococcus neoformans; settings: single 300 μM dose, exponential phase, 30° C., SAB, up to 24 h
Experimental: Panel A, survey of the effects of several oxatetradecanoic acids on the growth of C. neoformans. A culture of C. neoformans was grown at 30° C. in SAB media to midlog phase (A600 ~0.5). A single dose of fatty acid was then added to subcultures (final concentration=300 μM). EtOH(0.1%) was used as a negative control. Amphotericin B (AmB) was added (final concentraton=55 μM) as a positive control. Aliquots were withdrawn from the subcultures 0, 0.5, 2, 4, 7, 21, and 24 h after these additions and then absorbance at 600 nm was measured. All assays were done in duplicate or triplicate. A representative test is shown. Panel B, survey of the effects of oxatetradecanoic acids, dioxatetradecanoic acids and oxatridecanoic acids on the viability of C. neoformans. Fatty acid analog was added to the cultures as in Panel A. Aliquots were withdrawn 0.5, 2, 4, 7 or 8, and 24 h later and plated on SAB-agar at various dilutions to determine the number of viable organisms/ml culture. All assays were done in duplicate. Data from a representative test are expressed as the ratio of viable cells in treated cultures relative to a control culture that received 0.1% EtOH. A positive control culture received a single dose of amphotericin B (55 μM); Panel C, dose-dependent reduction in the viability of C. neoformans after addition of 4-oxatetradecanoic acid (O4) to cultures during log-phase growth at 30° C. in SAB. A single dose of the analog was given at T=0 h in the amount indicated and aliquots of the culture were withdrawn at various times to determine the number of viable cells. All assays were done in triplicate. A representative test is shown.
as §2, with “Amphotericin B (AmB; in the form of Fungizone, Squibb) was added (final concentration=55 μM) to another culture which served as the positive control. At T=0 and 0.5-24 h after addition of fatty acid analog to the subcultures, an aliquot was removed for determining the density of the subculture at 600 nm.” left out, “These plates were subsequently incubated at 30° C. for 24-48 hr to allow for the growth of colonies.” left out, “culture. […]” for “culture.”

CCCCCCCCCCOCCC(=O)O [O4, 4-oxatetradecanoic acid]
log reduction at 300 µM (C. albicans; 300 μM, 2 hr after addition, read-out: reductions in the number of viable C. albicans): < 0.699
log reduction at 500 µM (C. albicans; 500 μM, read-out: reduction in the number of viable organisms (C. albicans)): 1 to 2
log reduction at 300 µM (S. cerevisiae; 300 μM, 2 hr after addition, read-out: reductions in the number of viable S. cerevisiae): < 0.699
log reduction at 500 µM (S. cerevisiae; 500 μM, read-out: reduction in the number of viable organisms (S. cerevisiae)): 1 to 2
effect on growth of C. neoformans, as determined by optical density (C. neoformans): growth arrest equivalent to that observed with 55 μM amphotericin B
